Assay results as given in patent US5672585A, “Method and composition for treating thrombosis” (priority 1995, dated 1997).
Read-outs that look alike come from different tables or passages of the source. Where no end group is shown, it is not given here. [ ]: non-standard residue; d: D form. The star is where a group is joined. Pmc = Cc1c(C)c(S(=O)(=O)*)c(C)c2c1OC(C)(C)CC2; Pen = CC(C)(S)[C@H](N)C(=O)O

Key:
[1] = biological target: vitronectin receptor (Vn-R); assay: VnR binding, ELISA or liposome attachment assay (Table I); design: species or system human; details: purified receptor
Method: Receptor and ligand purifications were performed according to the methods in this Example or those in Examaple XI.C. Receptors were purified according to the procedures of Pytela et al. (Methods Enzymol. 144:475 (1987)), incorporated herein by reference. […] Except where stated, all procedures were carried out at 4° C. The peptide column was washed with three volumes of Tris-buffered saline (TBS) containing 1 mM Ca^2+ and 25 mM OG and then with TBS containing 1 mM Ca^2+ and 25 mM octyl thioglucoside (OTG) at room temperature. […] Finally, Ca^2+ and Mg^+2 were added to eluted fractions to achieve final concentrations of 1 mM for both ions.
This assay was performed with minor modifications, according to the method of Pytela et al., Methods Enzymol. 144:475 (1987), incorporated herein by reference. Briefly, 1:4 mixture of labelled and unlabelled phosphatidylcholine (PC) liposomes was dissolved under nitrogen and diluted with an equal volume of purified receptor (purified as described in Example II) to achieve a fixed predetermined receptor-liposome concentration ratio. This mixture was then dialyzed overnight at 4° C. in phosphate buffered saline (PBS) containing 1 mM Ca^2+. An aliquot of the dialyzed sample was counted to assess radioactive content; the receptor-liposome mixture was then diluted to obtain a set radioactivity per unit volume.
Microtiter plates were coated with 10 μg of vitronectin. Non-specific sites were blocked for 2 hours at 37° C. in PBS containing 5 mg/ml BSA and 1 mM each of CaCl2 and MgCl2. The plates were then rinsed twice with PBS containing 1 mM Ca^+2 and Mg^+2, and 100 μl of the liposome-receptor mixture was added to each well. If necessary, peptides were added before this step in a 1-10% dilution. The plates were then incubated at 4° C. for 24 hours. The following day, the liquid in each well was aspirated and the plates were washed twice with PBS containing 1 mM Ca^+2 and Mg^+2. Finally, 100 μl of 2% SDS was added, the plates were shaken for 10-15 minutes, and the supernatants were collected, vortexed, and subjected to liquid scintillation counting. This procedure typically yielded ca. 1000 total and 100 non-specific counts per well.
In parallel studies with the platelet aggregation experiments (described in Example V), the apparent affinities of peptides for GP IIbIIa, fibronectin and vitronectin receptors were determined. Receptor-binding assays (as described in Examples III and IV) with purified receptors, were used to assess the abilities of the peptides to displace the binding of receptors to their receptor-specific ligands.
(§4) Those for VnR and GP IIb/IIIa were determined either by ELISA or liposome attachment assay (Example IV).

platelets [2] = assay: Ex vivo inhibition of platelet aggregation (Table IV); type: in vivo, dog; details: for ex vivo inhibition of platelet aggregation (%): dose as listed per peptide in Table IV; for ex vivo platelet aggregation: doses of Table IV
Method: (§1) Platelet aggregation assays were performed following the methods of this Example or those of Example IX.G. Platelet aggregation was assessed using the method of Born, (Nature 194:927-929 (1962)), incorporated herein by reference. Briefly, the change in light transmission was measured through a stirred suspension of platelets in an aggregometer (Model 400 VS, Chrono-Log, Hayertown, Pa., USA). […] In studies using thrombin, the PRP was gel-filtered on Sepharose 2B in divalent ion-free Tyrode's solution containing 2% BSA. For all studies, the reference standard was platelet-poor plasma, which was obtained by centrifuging PRP at 1000×g for 5 min.
(§2) All aggregation studies were performed at 37° C. with a constantly stirred suspension of 3×10^8 platelets/ml. (Platelet count was determined with the aid of a hemacytometer.) Peptides and stimulants were added to these suspensions in 1% dilutions. The PRP and gel-filtered platelets were used within three hours from the time of blood collection.
Peptide anti-aggregation potencies were determined from dose-responsive curves for the inhibition of the maximum aggregation responses stimulated by physiologic doses of ADP (10 μm) and thrombin (2 U/ml).
Using the method described in Example V to measure ex vivo inhibition of platelet aggregation and the method described in Example VII to measure bleeding, four additional peptides were tested. These peptides included 11J, 11Q, 11K and 11V.

platelets [3] = type: cell-based; details: for platelet aggregation potency relative to analogue 3: more potent than analogue 3; for increase in platelet aggregation potency relative to analogue 5: substitution of Leu at position 3
Method: as §1, with “Platelet” for “Platelet aggregation assays were performed following the methods of this Example or those of Example IX.G. Platelet”, “Nature” for “(Nature”, “(1962),” for “(1962)),”
as §2, with “platelets/mL.” for “platelets/ml.”
The peptides described in this Example were synthesized according to the methods of Examples I and XI. Selectivity and potency were measured according to the methods of Examples II through XI. The peptide identification numbers used in this Example are consistent and relevant to this Example only. Some of the peptides are identified by other nomenclature elsewhere in this document.

platelets [4] = assay: ADP-stimulated platelet aggregation in platelet-rich plasma (Table I); details: read-out: ADP-Stimulated Aggregation; ADP 10 μm, citrated platelet-rich plasma, 37° C.; * concentrations unconfirmed by amino acid composition analysis
platelets [5] = assay: Thrombin-stimulated platelet aggregation (Table I); details: read-out: Thrombin Stimulated Aggregation; thrombin 2 U/ml, gel-filtered platelets, 37° C.
[6] = biological target: T1, Fibronectin receptor (Fn-R) (Homo sapiens, UniProt P05556+P08648); assay: FnR binding, competitive ELISA (Table I); details: purified receptor, * concentrations unconfirmed by amino acid composition analysis
T1 construct: Fibronectin receptor (Fn-R) was similarly purified from (100 mM) octyl glucoside-extracted human placenta; from tissue; host or cells: human placenta
T1 sequence (P08648 42-894 limits assumed): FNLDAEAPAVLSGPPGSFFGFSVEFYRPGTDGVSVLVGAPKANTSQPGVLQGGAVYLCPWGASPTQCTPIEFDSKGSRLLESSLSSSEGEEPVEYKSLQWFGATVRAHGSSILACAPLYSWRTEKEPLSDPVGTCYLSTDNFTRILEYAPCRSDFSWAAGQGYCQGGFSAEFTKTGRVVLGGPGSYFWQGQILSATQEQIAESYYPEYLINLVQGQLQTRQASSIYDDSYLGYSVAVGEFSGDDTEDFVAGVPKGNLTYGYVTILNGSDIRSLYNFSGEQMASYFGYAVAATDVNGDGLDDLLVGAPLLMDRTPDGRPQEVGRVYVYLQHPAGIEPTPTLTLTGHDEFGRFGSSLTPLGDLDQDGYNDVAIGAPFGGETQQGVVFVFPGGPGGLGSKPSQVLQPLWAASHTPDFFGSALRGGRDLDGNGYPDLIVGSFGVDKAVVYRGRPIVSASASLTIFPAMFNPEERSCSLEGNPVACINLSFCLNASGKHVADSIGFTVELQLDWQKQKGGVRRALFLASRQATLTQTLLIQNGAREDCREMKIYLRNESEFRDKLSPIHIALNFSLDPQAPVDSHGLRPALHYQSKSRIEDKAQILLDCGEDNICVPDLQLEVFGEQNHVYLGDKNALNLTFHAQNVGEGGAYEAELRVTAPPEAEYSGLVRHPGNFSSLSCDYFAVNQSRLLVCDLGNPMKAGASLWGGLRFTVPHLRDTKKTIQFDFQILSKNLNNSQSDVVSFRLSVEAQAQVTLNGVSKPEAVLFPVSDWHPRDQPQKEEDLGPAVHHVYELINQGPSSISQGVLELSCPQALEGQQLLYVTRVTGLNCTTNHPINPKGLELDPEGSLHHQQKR
T1 sequence (P08648 895-1049 partner limits assumed): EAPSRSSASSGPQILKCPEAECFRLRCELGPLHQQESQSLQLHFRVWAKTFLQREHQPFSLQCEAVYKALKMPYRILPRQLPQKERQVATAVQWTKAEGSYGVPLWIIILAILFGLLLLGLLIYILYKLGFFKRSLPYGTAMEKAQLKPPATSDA
T1 sequence (P05556 21-798): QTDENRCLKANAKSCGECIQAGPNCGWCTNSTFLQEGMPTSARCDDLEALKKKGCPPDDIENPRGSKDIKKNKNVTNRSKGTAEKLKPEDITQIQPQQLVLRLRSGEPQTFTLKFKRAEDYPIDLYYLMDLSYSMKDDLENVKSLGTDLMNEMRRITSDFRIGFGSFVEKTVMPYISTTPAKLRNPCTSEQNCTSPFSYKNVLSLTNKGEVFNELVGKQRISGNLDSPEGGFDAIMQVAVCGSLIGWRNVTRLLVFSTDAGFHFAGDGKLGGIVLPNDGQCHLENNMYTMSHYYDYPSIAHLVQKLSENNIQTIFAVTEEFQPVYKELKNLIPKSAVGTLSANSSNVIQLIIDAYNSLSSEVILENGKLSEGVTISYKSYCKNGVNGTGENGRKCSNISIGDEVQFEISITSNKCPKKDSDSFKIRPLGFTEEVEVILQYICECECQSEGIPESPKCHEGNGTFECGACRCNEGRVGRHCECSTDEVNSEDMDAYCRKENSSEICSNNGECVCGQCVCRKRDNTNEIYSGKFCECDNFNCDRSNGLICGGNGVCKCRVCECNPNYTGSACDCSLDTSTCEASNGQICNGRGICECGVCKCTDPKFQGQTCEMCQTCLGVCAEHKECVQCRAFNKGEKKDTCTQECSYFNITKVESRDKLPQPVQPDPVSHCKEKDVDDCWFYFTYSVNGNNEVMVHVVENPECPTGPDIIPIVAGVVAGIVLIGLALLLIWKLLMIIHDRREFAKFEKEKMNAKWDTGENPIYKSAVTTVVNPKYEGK
Method: Peptide binding to purified Fn-R was determined by using a competitive enzyme-linked immunosorbent assay (ELISA) in which fibronectin is immobilized and the binding of solubilized Fn-R and the binding of solubilized FN-R, in the presence of various concentrations of peptide analogue, is detected with a polyclonal anti-Fn-R antibody followed by a labelled anti-rabbit IgG conjugate.
Microtiter plates were coated with 110 μl of human fibronectin (at 2 μg/ml) in TBS. The plates were washed three times with TBS that contained 0.05% Tween 20. 50 microliters of receptor in TBS containing 20 mM octylglucoside and 2 mM NmCl2 was added to each well. 50 microliters of peptide in the same buffer was then added in 10-fold serial dilutions. The plates were incubated for three hours at room temperature, washed with 200 μl of the above TBS-Tween buffer. 100 μl of affinity-purified rabbit anti-human fibronectin receptor antibody was added to the wells and the plates were incubated for an additional two hours, washed twice with TBS-Tween and then distilled water. Affinity-purified goat anti-rabbit IgG conjugated to horseradish peroxidase (100 μl) was then added to each well. Bonding reactions were incubated for 16 hours at room temperature. The following day, the plates were washed twice with TBS-Tween and then distilled water. […]
IC50 s for FnR were determined by ELISA (Example III).

GP IIb/IIIa = GP IIb/IIIa (Homo sapiens, UniProt P05106+P08514); assay: IIb/IIIa binding, ELISA or liposome attachment assay (Table I); design: Platelet glycoprotein IIb/IIIa was purified from outdated human platelets; from tissue; host or cells: outdated human platelets; details: purified receptor
Chain of GP IIb/IIIa (P08514 32-887 limits assumed): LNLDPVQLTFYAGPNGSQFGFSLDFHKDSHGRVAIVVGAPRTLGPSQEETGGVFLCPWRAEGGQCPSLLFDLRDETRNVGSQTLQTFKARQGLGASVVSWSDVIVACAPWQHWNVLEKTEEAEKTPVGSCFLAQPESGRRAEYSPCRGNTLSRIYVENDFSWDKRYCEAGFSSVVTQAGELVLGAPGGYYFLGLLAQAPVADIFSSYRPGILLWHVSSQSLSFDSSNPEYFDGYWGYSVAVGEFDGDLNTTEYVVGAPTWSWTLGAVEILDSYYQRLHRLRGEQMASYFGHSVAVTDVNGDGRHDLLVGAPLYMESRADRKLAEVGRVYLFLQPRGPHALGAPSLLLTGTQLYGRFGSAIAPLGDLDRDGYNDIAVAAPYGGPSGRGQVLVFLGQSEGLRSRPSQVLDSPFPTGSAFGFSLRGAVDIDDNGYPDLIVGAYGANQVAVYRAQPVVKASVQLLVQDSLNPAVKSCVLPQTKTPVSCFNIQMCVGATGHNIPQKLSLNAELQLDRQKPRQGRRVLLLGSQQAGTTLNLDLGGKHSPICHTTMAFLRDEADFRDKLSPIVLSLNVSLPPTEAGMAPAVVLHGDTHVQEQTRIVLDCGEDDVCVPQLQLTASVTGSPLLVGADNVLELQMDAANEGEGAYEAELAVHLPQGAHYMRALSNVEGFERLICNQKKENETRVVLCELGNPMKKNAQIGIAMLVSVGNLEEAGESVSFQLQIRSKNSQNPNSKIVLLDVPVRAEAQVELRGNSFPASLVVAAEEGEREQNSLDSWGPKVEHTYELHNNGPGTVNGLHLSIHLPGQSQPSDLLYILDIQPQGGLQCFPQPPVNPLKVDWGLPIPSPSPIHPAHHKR
Chain of GP IIb/IIIa (P08514 891-1039 partner limits assumed): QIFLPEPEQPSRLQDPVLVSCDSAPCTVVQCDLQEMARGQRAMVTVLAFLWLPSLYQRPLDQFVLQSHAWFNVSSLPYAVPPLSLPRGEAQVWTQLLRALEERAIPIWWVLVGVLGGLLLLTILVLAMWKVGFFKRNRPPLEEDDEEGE
Chain of GP IIb/IIIa (P05106 27-788): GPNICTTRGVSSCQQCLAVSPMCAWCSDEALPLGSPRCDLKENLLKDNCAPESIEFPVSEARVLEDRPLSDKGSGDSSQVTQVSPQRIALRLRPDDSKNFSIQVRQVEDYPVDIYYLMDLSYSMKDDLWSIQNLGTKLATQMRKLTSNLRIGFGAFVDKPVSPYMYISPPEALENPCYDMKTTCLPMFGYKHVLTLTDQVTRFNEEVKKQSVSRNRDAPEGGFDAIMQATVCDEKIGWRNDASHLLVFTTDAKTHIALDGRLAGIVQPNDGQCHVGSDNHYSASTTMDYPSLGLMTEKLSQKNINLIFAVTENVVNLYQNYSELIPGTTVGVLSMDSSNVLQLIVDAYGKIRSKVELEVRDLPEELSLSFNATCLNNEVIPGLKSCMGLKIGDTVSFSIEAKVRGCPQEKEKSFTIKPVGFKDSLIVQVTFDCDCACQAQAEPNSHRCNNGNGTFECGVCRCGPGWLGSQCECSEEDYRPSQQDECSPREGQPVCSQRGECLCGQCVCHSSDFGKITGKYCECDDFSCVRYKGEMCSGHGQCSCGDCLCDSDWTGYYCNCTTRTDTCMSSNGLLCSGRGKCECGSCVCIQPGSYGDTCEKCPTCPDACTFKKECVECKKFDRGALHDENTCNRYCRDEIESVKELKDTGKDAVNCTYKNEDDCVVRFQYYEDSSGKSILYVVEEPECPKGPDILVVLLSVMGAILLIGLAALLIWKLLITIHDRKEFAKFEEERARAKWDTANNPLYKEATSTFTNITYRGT
Method: Microtiter plates, 96 wells were coated (Type Nunc 1 Maxispor™) with 10 μg/ml purified fibrinogen (100 μl/well), and allowed to stand overnight at 4° C. The plates were washed three times with PBS Tween, 0.137M NaCl, 0.003M KCl, 0.008M Na2 HPO4, pH 7.4 at room temperature, 0.05% Tween-20 and blocked for 1 to 2 hours at room temperature with 200 μl/well TNCNT (which is 0.5% BSA, 20 mM Tris, pH 7.5 at room temperature, 120 mM NaCl, 0.2% NAN3, 2 mM CaCl2, 0.05% Tween 20, [Calbiochem RIA grade or better]) on a plate shaker. The plates were again washed three times with PBS/Tween and 50 μl of sample in TNCNT is added. The mixture was incubated for 15 minutes at room temperature on a plate shaker. The stock solution of purified GPIIb IIIa receptor from human platelets, (0.4-1.0 mg/ml GPIIb IIIa in 0.1% Triton X-100, 1 mM CaCl2, 20 mM Tris, 150 mM NaCl, 0.05% NaN3 in 0.3M N-acetyl glucosamine pH 7.5, stored at -70° C.), was reconstituted in TNCNT. Fifty (50) μl of this diluted GPIIb IIIa was then added to each well and incubated on a plate shaker at room temperature. […] The optical density at 492 nm vs 405 nm was recorded and IC50 values are determined.
as §4

canine platelets = assay: Canine platelet aggregation in vitro (ADP, arachidonic acid, collagen); type: cell-based, dog; details: stimulated by 10 μm ADP, […] arachidonic acid or 9.6 micrograms/ml collagen
coronary thrombosis = assay: Electrically induced canine coronary thrombosis, time to full occlusion; type: in vivo; details: dog
Method: Male mongrel dogs weighing 14 to 20 kg were selected based on proper aggregation of their platelets in response to arachidonic acid, collagen, and adenosine disphosphate (ADP) and based on similar weights and hemodynamic properties.
Before surgery, the animals were anesthetized with sodium pentobarbital (30 mg/kg, i.v.) and then intubated and ventilated on room air with positive pressure using a respirator (Harvard Apparatus, S. Natick, Mass.) at a volume of 30 ml/kg and a frequency of 12 breaths/min. Surgery, performed under aseptic conditions, was begun with the placement of cannulae into the left carotid artery and jugular vein for monitoring arterial blood pressure (Statham P23 pressure transducer, Gould, Inc., Cardiovascular Products, Oxnard, CA) and administering intravenous fluids.
The heart was exposed via a left thoracotomy through the 5th intercostal space. A 2-cm segment of the left circumflex coronary artery (LCCA) was isolated from surrounding tissue by blunt dissection. […] The intra-coronary electrode was constructed by attaching a 25-gauge hypodermic needle tip to a 30-gauge Teflon-insulated silver-coated copper wire. The mechanical occluder was constructed of stainless steel in a C shape with a Teflon screw (2 mm diameter) on top. It was adjusted to control vessel circumference and decrease the reactive hyperemic flow due to a 10-sec (full) occlusion by 50-70% without affecting basal coronary blood flow (FIG. 1C). A monopolar epicardial electrode was sutured to the surface of the ventricle in the region of LCCA distribution to monitor ischemic changes in the electrocardiogram (ECG). The left atrium was cannulated with polythylene tubing for administration of the peptide. Continuous recordings of blood pressure, limb lead II ECG, epicardial electrogram, and mean and phasic LCCA blood flow were obtained on a Model 7 polygraph (Grass Instrument Co., Quincy, Mass.).
One hour after the completion of surgery, a 100 micro-amp continuous anodal direct current delivered from a 9 volt nickel-cadmium battery was applied to the intimal surface of the LCCA. The anode of the battery was in series with a 250,000 ohm potentiometer and the intraluminal coronary artery electrode. The electric circuit was completed by placing the cathode in a subcutaneous site. Electrical stimulation was applied for three hours. At the conclusion of each experiment, the heart was fibrillated electrically and quickly removed, and the LCCA was dissected free as far as possible to verify the position of the implanted anodal electrode.
(§3) Animals were randomly assigned to two treatment groups: vehicle control (i.e., normal saline) or RGD peptides at various concentrations. Peptides were administered intra-atrially in both bolus and continuous injections. Each bolus injection consisted of 0.5 to 10 mg/kg and was administered 15 minutes before application of the current. A continuous infusion of the same peptide was then started immediately after completion of this initial injection. Animals received a 25 μg/kg/min to 200 μg/kg/min infusion. The anti-thrombotic effects of the peptides were monitored until 30 minutes after the occurrence of a persistent, occlusive thrombus or five hours after the initiation of electrical stimulation (whichever resulted first). If an occlusive thrombus had not developed within four hours after the initiation of current, the peptide infusion was stopped.
Coronary thrombosis was quantified as the time to full occlusion. The effects of the various peptide treatments on coronary thrombosis is illustrated in FIG. 4.

platelets [7] = assay: Ex vivo platelet aggregation in the canine coronary thrombosis study; details: dog, 10 mg/kg injection
Method: For all ex vivo studies (see FIGS. 3A, 3B1, 3B2, 3B3, 3C1 and 3C2), control aggregation values were standardized to the percentages of light transmission observed in PRP and PPP samples (0% and 100%, respectively).
as §3
Platelet counts and ex vivo aggregation studies were performed one hour before and 1, 3, and 5 hours after application of anodal direct current.
Platelet aggregation was also determined ex vivo at one, three, and five hours after current application. For these studies, arachidonic acid, or collagen was again used to stimulate the platelets.

[8] = substitution of Arg at position 4

Substance: LRGDSPDG
- IC50 [1]: 200 nM

Substance: Ac- CNPRGD(Y--OMe)(Nle)C--NH2 [Peptide 11V]
- ex vivo inhibition of platelet aggregation (%) (platelets [2]): > 98%
- ex vivo platelet aggregation (platelets [2]): inhibited ex vivo platelet aggregation

Substance: R(Pmc)GHRGDLRCR [analogue 5]
- platelet aggregation potency relative to analogue 3 (platelets [3]): 3 fold

Substance: G(Pen)FRGDSFCA
- IC50 (platelets [4]): > 200 µM

Substance: R(D-Pen)GHRGDLRCR [analogue 4]
- platelet aggregation potency relative to analogue 3 (platelets [3]): 2 fold

Substance: G(Pen)GHRGDTRCA
- IC50 (platelets [4]): 11.3 µM
- IC50 (platelets [5]): 17 µM

Substance: R[Pen]GRGDSRCA (cysteine pairing not given here)
- IC50 (platelets [4]): 12 µM
- IC50 (platelets [5]): 12 µM

Substance: G(Pen)LRGDSRCA
- IC50 (platelets [4]): 41 µM
- IC50 (platelets [5]): 49 µM

Substance: YRGDSPDG
- IC50 [1]: 80 nM

Substance: VRGDSPDG
- IC50 [1]: 240 nM
- IC50 [6]: 40 nM
- IC50 (GP IIb/IIIa): 270 nM

Substance: G[Pen]YRGDSPCA (cysteine pairing not given here)
- IC50 (platelets [4]): 47 µM

Substance: R(Pmc)GHRGDYRCR
- IC50 (platelets [4]): 1 µM

Substance: Ac-CIPRGD(Y-OMe)RC-NH2 [Peptide 10R]
- increase in platelet aggregation potency relative to analogue 26 (platelets [3]): 3-4 fold

Substance: Ac- CNPRGD(Y--OMe)AC--NH2 [Peptide 11K]
- ex vivo inhibition of platelet aggregation (%) (platelets [2]): > 98%
- ex vivo platelet aggregation (platelets [2]): inhibited ex vivo platelet aggregation
- platelet aggregation potency compared with analogue 32 (platelets [3]; [8]): substantial decreases in platelet aggregation potency

Substance: G(Pen)LRGDTPCA
- IC50 (platelets [4]): 86 µM

Substance: GRGDSP [reference compound]
- IC50 (canine platelets; read-out: concentration inhibiting all three canine platelet aggregation responses by 50%): ~130 µM

Substance: L(Pen)GHRGDLRCA
- IC50 (platelets [4]): 10.5 µM

Substance: R(orn)GHRGDLRDR
- IC50 (platelets [4]): > 200 µM

Substance: (Pmp)GRGDTPCA
- IC50 (platelets [4]): 85 µM

Substance: Ac- CNPRGD(Y--OMe)(Cit)C--NH2 [Peptide 11S]
- platelet aggregation potency compared with analogue 32 (platelets [3]; [8]): substantial decreases in platelet aggregation potency

Substance: FRGDSPDG
- IC50 [1]: 40 nM
- IC50 [6]: 2400 nM

Substance: R[Pen]GHRGDTRCR (cysteine pairing not given here)
- IC50 (platelets [4]): 8.8 µM

Substance: R(Pmc)GHRGDVRCR
- IC50 (platelets [4]): 0.69 µM
- increase in platelet aggregation potency relative to analogue 5 (platelets [3]): 4 fold

Substance: R(Pen)GRGDTPCA
- IC50 (platelets [4]): 7 µM
- IC50 (platelets [5]): 3.1 µM

Substance: Ac- CNPRGD(Y--OMe)EC--NH2 [Peptide 11J]
- ex vivo inhibition of platelet aggregation (%) (platelets [2]): > 98%
- ex vivo platelet aggregation (platelets [2]): inhibited ex vivo platelet aggregation
- decrease in platelet aggregation potency relative to analogue 32 (platelets [3]; [8]): 15 fold

Substance: Ac- CNPRGD(Y--OMe)KC--NH2 [Peptide 11R]
- inhibitory activity retained relative to analogue 32 (platelets [3]; [8]): 20%

Substance: R(Pen)GRGDTPCK
- IC50 (platelets [4]): 7.6 µM

Substance: (t-but-am-Pmp)GHRGDLR(Pen)A [(t-but-am-P mp)GHRGDLR(Pen)A]
- IC50 (platelets [4]): 89 µM

Substance: Ac- CNPRGD(Y--OMe)(dR)C--NH2 [Peptide 11L]
- platelet aggregation potency compared with analogue 32 (platelets [3]; [8]): decrease in potency

Substance: G(Pen)GRGDTPCA
- IC50 (platelets [4]): 22.3 µM
- IC50 (platelets [5]): 28 µM

Substance: R(Pmc)GHRGDFRCR
- IC50 (platelets [4]): 0.62 µM
- increase in platelet aggregation potency relative to analogue 5 (platelets [3]): ~5 fold

Substance: G(Pen)GRGDRPCA
- IC50 (platelets [4]): 22.3 µM

Substance: R(Tmc)GHRGDLRCR [analogue 7]
- platelet aggregation potency relative to analogue 3 (platelets [3]): 2 fold

Substance: G(Pen)LRGDSPCA
- IC50 (platelets [4]): 415 µM
- IC50 (platelets [5]): 308 µM

Substance: G[Pen]GRGDSFCA (cysteine pairing not given here)
- IC50 (platelets [4]): 115 µM

Substance: R[Pen]GRGDLRCA (cysteine pairing not given here)
- IC50 (platelets [4]): 16 µM
- IC50 (platelets [5]): 13 µM

Substance: R2(Pen)GRGDTPCA
- IC50 (platelets [4]): 8.2 µM
- IC50 (platelets [5]): 2.7 µM

Substance: Ac-CNPRGD(O-N-Butyl-Y)RC-NH2 [Ac CNPRGD(O-n-butyl-Tyr)RC--NH2]
- IC50 (platelets [4]): 0.1 µM

Substance: Ac- CNPKGD(Y--OMe)RC--NH2 [Peptide 11Q]
- ex vivo inhibition of platelet aggregation (%) (platelets [2]): > 95%
- ex vivo platelet aggregation (platelets [2]): inhibited ex vivo platelet aggregation

Substance: R(Pen)GRGDWPCR [Peptide 4R]
- coronary thrombosis, occlusion (coronary thrombosis; 3 mg/kg): ineffective
- coronary thrombosis, time to full occlusion (coronary thrombosis; 10 mg/kg): prevented occlusion throughout the duration of the study
- IC50 (platelets [5]): 0.53 µM
- ex vivo platelet aggregation by ADP, AA and collagen (platelets [7]): unresponsive to all modes of stimulation at all time points
- IC50 (canine platelets; read-out: IC50 against canine platelet aggregation): 1.5 to 5 µM

Substance: (Pmp)GHRGDLRCA
- platelet aggregation potency relative to analogue 1 (platelets [3]; more potent than analogue 1): 2 fold

Substance: R(Pen)GRGDTPCR
- IC50 (platelets [4]): 6.3 µM
- IC50 (platelets [5]): 2 µM
